The values below come from ChEMBL document CHEMBL5303573, “Mapping human microbiome drug metabolism by gut bacteria and their genes” (Nature, 2019).

For series [1] the following is noted: enterocloster bolteae, 12 h, 2 µM.
Description: The drug is tested on Clostridium bolteae strain: ATCCBAA-613 for biotransformation. The drug concentrations were measured before and after a 12-h incubation by liquid-chromatography-coupled mass spectrometry (LC–MS)
Series [2] is described as follows: The drug is tested on Providencia stuartii strain: ATCC25827 for biotransformation. The drug concentrations were measured before and after a 12-h incubation by liquid-chromatography-coupled mass spectrometry (LC–MS). Particulars: 2 µM.
Series [3] in a line: The drug is tested on Eubacterium hallii strain: DSM3353 for biotransformation. The drug concentrations were measured before and after a 12-h incubation by liquid-chromatography-coupled mass spectrometry (LC–MS). Particulars: anaerobutyricum hallii, 2 µM.
Series [4] can be described thus: The drug is tested on Bacteroides xylanisolvens strain: DSM18836 for biotransformation. The drug concentrations were measured before and after a 12-h incubation by liquid-chromatography-coupled mass spectrometry (LC–MS). As to conditions: 2 µM.
Series [5] in a line: The drug is tested on Ruminococcus torques strain: ATCC27756 for biotransformation. The drug concentrations were measured before and after a 12-h incubation by liquid-chromatography-coupled mass spectrometry (LC–MS). It is filed as ADME. Details: dose 2 uM, timepoint 0 vs 12 hours. As to conditions: 2 µM.
Series [6] is described as follows: The drug is tested on Eubacterium rectale strain: ATCC33656 for biotransformation. The drug concentrations were measured before and after a 12-h incubation by liquid-chromatography-coupled mass spectrometry (LC–MS). Particulars: agathobacter rectalis, 2 µM.
Series [7] in a line: The drug is tested on Bacteroides coprophilus strain: DSM18228 for biotransformation. The drug concentrations were measured before and after a 12-h incubation by liquid-chromatography-coupled mass spectrometry (LC–MS). As to conditions: 2 µM.
A short description of series [8]: The drug is tested on Escherichia coli strain: BW25113 for biotransformation. The drug concentrations were measured before and after a 12-h incubation by liquid-chromatography-coupled mass spectrometry (LC–MS). Particulars: 2 µM.
For series [9] the following is noted: parabacteroides johnsonii, 12 h, 2 µM.
Description: The drug is tested on Parabacteroides johnsonii strain: DSM18315 for biotransformation. The drug concentrations were measured before and after a 12-h incubation by liquid-chromatography-coupled mass spectrometry (LC–MS)
Series [10] in a line: The drug is tested on Collinsella aerofaciens strain: ATCC25986 for biotransformation. The drug concentrations were measured before and after a 12-h incubation by liquid-chromatography-coupled mass spectrometry (LC–MS). As to conditions: 2 µM.
The nature of series [11]: The drug is tested on Enterococcus faecalis strain: V583 for biotransformation. The drug concentrations were measured before and after a 12-h incubation by liquid-chromatography-coupled mass spectrometry (LC–MS). Particulars: 2 µM.
Series [12] is described as follows: The drug is tested on Bifidobacterium breve strain: DSM20213 for biotransformation. The drug concentrations were measured before and after a 12-h incubation by liquid-chromatography-coupled mass spectrometry (LC–MS). As to conditions: 2 µM.
The nature of series [13]: The drug is tested on Bacteroides fragilis strain: HMW615 for biotransformation. The drug concentrations were measured before and after a 12-h incubation by liquid-chromatography-coupled mass spectrometry (LC–MS). Particulars: 2 µM.
For series [14] the following is noted: victivallis vadensis, 12 h, 2 µM.
Description: The drug is tested on Victivallis vadensis strain: ATCC BAA-548 for biotransformation. The drug concentrations were measured before and after a 12-h incubation by liquid-chromatography-coupled mass spectrometry (LC–MS)
The nature of series [15]: The drug is tested on Bacteroides sp. WH2 strain: WH2 for biotransformation. The drug concentrations were measured before and after a 12-h incubation by liquid-chromatography-coupled mass spectrometry (LC–MS). As to conditions: bacteroides sp. wh2, 12 h, 2 µM.
The nature of series [16]: The drug is tested on Bifidobacterium longum subsp. Infantis strain: CCUG52486 for biotransformation. The drug concentrations were measured before and after a 12-h incubation by liquid-chromatography-coupled mass spectrometry (LC–MS). As to conditions: 2 µM.
The conditions of series [17]: bifidobacterium adolescentis, 12 h, 2 µM.
Description: The drug is tested on Bifidobacterium adolescentis strain: ATCC 15703 for biotransformation. The drug concentrations were measured before and after a 12-h incubation by liquid-chromatography-coupled mass spectrometry (LC–MS)
The nature of series [18]: The drug is tested on Bacteroides ovatus strain: ATCC8483 for biotransformation. The drug concentrations were measured before and after a 12-h incubation by liquid-chromatography-coupled mass spectrometry (LC–MS). As to conditions: 2 µM.
Series [19] is described as follows: The drug is tested on Eubacterium ventriosum strain: ATCC27560 for biotransformation. The drug concentrations were measured before and after a 12-h incubation by liquid-chromatography-coupled mass spectrometry (LC–MS). It counts as ADME. Details: dose 2 uM, timepoint 0 vs 12 hours. As to conditions: 2 µM.
Series [20] in a line: The drug is tested on Clostridium ramosum strain: DSM1402 for biotransformation. The drug concentrations were measured before and after a 12-h incubation by liquid-chromatography-coupled mass spectrometry (LC–MS). As to conditions: thomasclavelia ramosa, 2 µM.

In the case of `CCOC(=O)[C@H](CCc1ccccc1)N[C@@H](C)C(=O)N1Cc2ccccc2C[C@H]1C(=O)O`, the “Bacterial Biotransformation” value is listed as “Compound NOT metabolized” in [1]; “Compound metabolized” in series [2]; “Compound NOT metabolized” in series [3]; “Compound metabolized” in [4]; “Compound NOT metabolized” in [5]; “Compound NOT metabolized” in series [6]. Besides, the “Bacterial Biotransformation” value in [7] is “Compound metabolized”; in series [8], “Compound NOT metabolized”; in series [9] it was “Compound metabolized”; in [10], “Compound NOT metabolized”; in series [11], “Compound NOT metabolized”; in [12], “Compound metabolized”. In addition, the “Bacterial Biotransformation” value is on record as “Compound metabolized” in series [13], “Compound NOT metabolized” in [14], “Compound NOT metabolized” in series [15] and “Compound NOT metabolized” in series [16].

On to `O=P1(N(CCCl)CCCl)NCCCO1` (configuration not stated) [CYCLOPHOSPHAMIDE ANHYDROUS], for which the “Bacterial Biotransformation” value in [2], in series [4], in series [5], in series [17], in series [6] and in [7] was “Compound NOT metabolized” in each case. Further, the “Bacterial Biotransformation” value in [8], in series [9], in series [10], in series [11], in series [18] and in [12] was “Compound NOT metabolized” throughout. Besides, the “Bacterial Biotransformation” value in series [13] was “Compound metabolized”; in series [14] it was “Compound NOT metabolized”; in [15] it was “Compound NOT metabolized”.

With `CC(=O)Nc1ccc(OC(C)=O)cc1` [DIACETAMATE], the “Bacterial Biotransformation” value in [1], in series [2], in series [3], in [4], in series [5] and in series [17] was “Compound metabolized” in each case. Moreover, the “Bacterial Biotransformation” value in series [6], in series [7], in series [19], in series [9], in [10] and in [20] was “Compound metabolized” throughout. Further, the “Bacterial Biotransformation” value in series [11], in series [18], in series [12], in series [13], in [14] and in series [15] was “Compound metabolized” in each case. The “Bacterial Biotransformation” value in [16] is given as “Compound metabolized”.

On to `Nc1ccc(/N=N/c2ccccc2)c(N)n1` [PHENAZOPYRIDINE], for which the “Bacterial Biotransformation” value is “Compound metabolized” in series [1]; “Compound NOT metabolized” in series [2]; “Compound metabolized” in series [3]; “Compound metabolized” in series [4]; “Compound metabolized” in series [5]; “Compound metabolized” in [6]. Also, the “Bacterial Biotransformation” value is recorded as “Compound NOT metabolized” in [7]; “Compound metabolized” in [19]; “Compound metabolized” in series [9]; “Compound metabolized” in [10]; “Compound metabolized” in [20]; “Compound metabolized” in series [11]. Further, the “Bacterial Biotransformation” value in series [18], in series [12], in series [13], in [14] and in [15] was “Compound metabolized” each time.
